In BindingDB's records for doi:10.1124/mol.58.6.1310 (Pfizer, 2000):

molecular target: Glutamate receptor 3 (Rattus norvegicus, UniProt P19492)
Sequence (P19492 whole entry): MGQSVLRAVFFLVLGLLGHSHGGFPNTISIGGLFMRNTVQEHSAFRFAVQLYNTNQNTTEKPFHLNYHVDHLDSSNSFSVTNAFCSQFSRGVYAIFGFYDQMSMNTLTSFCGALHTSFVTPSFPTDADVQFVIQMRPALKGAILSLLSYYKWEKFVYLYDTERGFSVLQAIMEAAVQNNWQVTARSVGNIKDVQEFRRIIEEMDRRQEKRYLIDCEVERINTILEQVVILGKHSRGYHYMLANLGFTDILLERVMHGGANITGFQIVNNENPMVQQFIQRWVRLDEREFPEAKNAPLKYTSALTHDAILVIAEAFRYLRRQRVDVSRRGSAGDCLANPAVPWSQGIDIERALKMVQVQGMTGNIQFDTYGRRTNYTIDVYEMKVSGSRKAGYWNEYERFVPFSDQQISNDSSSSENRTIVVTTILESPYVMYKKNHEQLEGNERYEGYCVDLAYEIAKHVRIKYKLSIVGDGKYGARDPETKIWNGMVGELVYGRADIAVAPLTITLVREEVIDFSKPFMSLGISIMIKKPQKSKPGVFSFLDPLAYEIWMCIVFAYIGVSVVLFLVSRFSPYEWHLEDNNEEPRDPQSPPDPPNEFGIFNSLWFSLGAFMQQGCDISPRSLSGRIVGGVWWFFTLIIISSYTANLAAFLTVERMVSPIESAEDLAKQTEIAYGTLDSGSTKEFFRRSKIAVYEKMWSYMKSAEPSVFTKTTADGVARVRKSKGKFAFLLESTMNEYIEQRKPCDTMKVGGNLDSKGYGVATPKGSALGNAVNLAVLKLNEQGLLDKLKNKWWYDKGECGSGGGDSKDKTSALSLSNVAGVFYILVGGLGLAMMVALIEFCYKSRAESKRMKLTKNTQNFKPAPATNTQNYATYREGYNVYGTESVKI

SMILES	Ki
N#Cc1cccc(/C=C/c2nc3ccc(F)cc3c(=O)n2-c2ccccc2Cl)n1	3 nM
CCN(CC)Cc1cccc(/C=C/c2nc3ccc(F)cc3c(=O)n2-c2ccccc2Cl)n1 [(R)-3-(2-Chloro-phenyl)-2-[(E)-2-(6-diethylaminomethyl-pyridin-2-yl)-vinyl]-6-fluoro-3H-quinazolin-4-one]	25 nM
Cc1ncccc1-n1c(/C=C/C2CSC(C)N2)nc2ccccc2c1=O (stereo not given) [CP-471236]	57 nM
Cc1ncccc1-n1c(/C=C/C2CS[C@H](C)N2)nc2ccccc2c1=O (stereo not given in full) [CP-471237]	> 10000 nM
CC1=NN=C(c2ccc(N)cc2)c2cc3c(cc2C1)OCO3 [GYKI-52466]	> 10000 nM
